Patent US20100298141A1, “SUBSTITUTED PYRIDINE N-OXIDE HERBICIDES” (E. I. DU PONT DE NEMOURS AND COMPANY, priority 2007, published 2010)

What was measured:
duck salad = experiment: Test C flooded paddy test; format: in vivo, Heteranthera limosa; conditions: Flood
In short: (§1)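 In-water treatment: compound dosed into 3 cm flood over soil, water level unchanged throughout. Controls run alongside; visual assessment at day 13–15.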

rice = experiment: Test C flooded paddy test; format: in vivo, Oryza sativa; conditions: Flood
In short: as §1

morningglory = experiment: Test A pre-/postemergence greenhouse test; format: in vivo, Ipomoea spp.; conditions: for Plant response rating, Morningglory: 0 to 100 scale where 0 is no effect and 100 is complete control; for Morningglory plant response rating: 0 to 100 scale
In short: (§2)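 Greenhouse herbicide screen, pre- and postemergence in parallel. Soil: loam plus sand. Formulation: non-phytotoxic solvent mix with surfactant. Postemergence stage: one to two leaves, 2–10 cm height. Evaluation: visual injury, compared with untreated controls, about 10 days after treatment.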

corn = experiment: Test A pre-/postemergence greenhouse test; format: in vivo, Zea mays; conditions: for Plant response rating, Corn: 0 to 100 scale where 0 is no effect and 100 is complete control; for Corn plant response rating: 0 to 100 scale
In short: as §2

crabgrass = experiment: Test A pre-/postemergence greenhouse test; format: in vivo, Digitaria sanguinalis; conditions: for Plant response rating, Crabgrass, Large: 0 to 100 scale where 0 is no effect and 100 is complete control; for Crabgrass, Large plant response rating: 0 to 100 scale
In short: as §2

wheat = experiment: Test A pre-/postemergence greenhouse test; format: in vivo, Triticum aestivum; conditions: for Plant response rating, Wheat: 0 to 100 scale where 0 is no effect and 100 is complete control; for Wheat plant response rating: 0 to 100 scale
In short: as §2

barnyardgrass [1] = experiment: Test C flooded paddy test; format: in vivo, Echinochloa crus-galli; conditions: Flood
In short: as §1

barnyardgrass [2] = experiment: Test A pre-/postemergence greenhouse test; format: in vivo, Echinochloa crus-galli; conditions: for Plant response rating, Barnyardgrass: 0 to 100 scale where 0 is no effect and 100 is complete control; for Barnyardgrass plant response rating: 0 to 100 scale
In short: as §2

redroot pigweed = experiment: Test A pre-/postemergence greenhouse test; format: in vivo, Amaranthus retroflexus; conditions: for Plant response rating, Pigweed: 0 to 100 scale where 0 is no effect and 100 is complete control; for Pigweed plant response rating: 0 to 100 scale
In short: as §2

umbrella sedge = experiment: Test C flooded paddy test; format: in vivo, Cyperus difformis; conditions: Flood
In short: as §1

velvetleaf = experiment: Test A pre-/postemergence greenhouse test; format: in vivo, Abutilon theophrasti; conditions: for Plant response rating, Velvetleaf: 0 to 100 scale where 0 is no effect and 100 is complete control; for Velvetleaf plant response rating: 0 to 100 scale
In short: as §2

giant foxtail = experiment: Test A pre-/postemergence greenhouse test; format: in vivo, Setaria faberi; conditions: for Plant response rating, Foxtail, Giant: 0 to 100 scale where 0 is no effect and 100 is complete control; for Foxtail, Giant plant response rating: 0 to 100 scale
In short: as §2

[3] = 62 g ai/ha, scale 0 to 100 (0 no effect, 100 complete control)
[4] = 250 g ai/ha, scale 0 to 100, 0 no effect, 100 complete control, 13 to 15 days
[5] = Postemergence, 500 g ai/ha, 0 is no effect, 100 is complete control
[6] = Preemergence, 125 g ai/ha, 0 no effect, 100 complete control
[7] = Preemergence, 500 g ai/ha, 0 no effect, 100 complete control

Row | Compound | Plant response rating, Ducksalad (duck salad; [3]) | Plant response rating, Ducksalad (duck salad; [4]) | Plant response rating, Rice (rice; [3]) | Plant response rating, Rice (rice; [4]) | Plant response rating, Morningglory (morningglory; Postemergence, 125 g ai/ha) | Morningglory plant response rating (morningglory; [5]) | Morningglory plant response rating (morningglory; [6]) | Plant response rating, Morningglory (morningglory; Preemergence, 500 g ai/ha) | Plant response rating, Corn (corn; Postemergence, 125 g ai/ha) | Corn plant response rating (corn; [5]) | Corn plant response rating (corn; [6]) | Plant response rating, Corn (corn; Preemergence, 500 g ai/ha) | Plant response rating, Crabgrass, Large (crabgrass; Postemergence, 125 g ai/ha) | Crabgrass, Large plant response rating (crabgrass; [5]) | Crabgrass, Large plant response rating (crabgrass; [6]) | Plant response rating, Crabgrass, Large (crabgrass; Preemergence, 500 g ai/ha) | Plant response rating, Wheat (wheat; Postemergence, 125 g ai/ha) | Wheat plant response rating (wheat; [5]) | Wheat plant response rating (wheat; [6]) | Plant response rating, Barnyardgrass (barnyardgrass [1]; [3]) | other results
1 | Cn1nc(C(F)(F)F)c(CS(=O)(=O)c2ccc(Cl)c[n+]2[O-])c1OCC(F)(F)C(F)(F)F [Compound 97] | 0 | 40 | 0 | 30 | 0 | 0 | 0 | 20 | 0 | 0 | 0 | 0 | 20 | 60 | 20 | 70 | 0 | 30 | 0 | 0 | Wheat plant response rating (wheat; [7]): 0; Plant response rating, Barnyardgrass (barnyardgrass [1]; [4]): 0; Plant response rating, Barnyardgrass (barnyardgrass [2]; Postemergence, 125 g ai/ha): 20; Barnyardgrass plant response rating (barnyardgrass [2]; [5]): 70; Barnyardgrass plant response rating (barnyardgrass [2]; [6]): 10; Plant response rating, Barnyardgrass (barnyardgrass [2]; Preemergence, 500 g ai/ha): 90; Plant response rating, Pigweed (redroot pigweed; Postemergence, 125 g ai/ha): 0; Pigweed plant response rating (redroot pigweed; [5]): 20; Pigweed plant response rating (redroot pigweed; [6]): 30; Plant response rating, Pigweed (redroot pigweed; Preemergence, 500 g ai/ha): 30; Plant response rating, Sedge, Umbrella (umbrella sedge; [3]): 0; Plant response rating, Sedge, Umbrella (umbrella sedge; [4]): 0; Plant response rating, Velvetleaf (velvetleaf; Postemergence, 125 g ai/ha): 0; Velvetleaf plant response rating (velvetleaf; [5]): 30; Velvetleaf plant response rating (velvetleaf; [6]): 0; Velvetleaf plant response rating (velvetleaf; [7]): 0; Plant response rating, Foxtail, Giant (giant foxtail; Postemergence, 125 g ai/ha): 30; Foxtail, Giant plant response rating (giant foxtail; [5]): 70; Foxtail, Giant plant response rating (giant foxtail; [6]): 70; Plant response rating, Foxtail, Giant (giant foxtail; Preemergence, 500 g ai/ha): 80
2 | Cn1nc(C(F)(F)F)c(C[S+]([O-])c2cc(C(C)(C)C)cc[n+]2[O-])c1OCC(F)(F)F (racemic) [Compound 61] | 0 | 90 | 20 | 50 | 0 | 70 | 60 | 100 | 30 | 70 | 0 | 50 | 30 | 60 | 70 | 100 | 50 | 60 | 50 | 30 | Plant response rating, Wheat (wheat; Preemergence, 500 g ai/ha): 100; Plant response rating, Barnyardgrass (barnyardgrass [1]; [4]): 30; Plant response rating, Barnyardgrass (barnyardgrass [2]; Postemergence, 125 g ai/ha): 30; Barnyardgrass plant response rating (barnyardgrass [2]; [5]): 80; Barnyardgrass plant response rating (barnyardgrass [2]; [6]): 0; Plant response rating, Barnyardgrass (barnyardgrass [2]; Preemergence, 500 g ai/ha): 100; Plant response rating, Pigweed (redroot pigweed; Postemergence, 125 g ai/ha): 40; Pigweed plant response rating (redroot pigweed; [5]): 60; Pigweed plant response rating (redroot pigweed; [6]): 80; Plant response rating, Pigweed (redroot pigweed; Preemergence, 500 g ai/ha): 100; Plant response rating, Sedge, Umbrella (umbrella sedge; [3]): 0; Plant response rating, Sedge, Umbrella (umbrella sedge; [4]): 100; Plant response rating, Velvetleaf (velvetleaf; Postemergence, 125 g ai/ha): 0; Velvetleaf plant response rating (velvetleaf; [5]): 70; Velvetleaf plant response rating (velvetleaf; [6]): 0; Plant response rating, Velvetleaf (velvetleaf; Preemergence, 500 g ai/ha): 100; Plant response rating, Foxtail, Giant (giant foxtail; Postemergence, 125 g ai/ha): 50; Foxtail, Giant plant response rating (giant foxtail; [5]): 70; Foxtail, Giant plant response rating (giant foxtail; [6]): 100; Plant response rating, Foxtail, Giant (giant foxtail; Preemergence, 500 g ai/ha): 100
